Data: patent US12281116B2, “HTT modulators for treating Huntington's disease” (CHDI Foundation, Inc., priority 2021, dated 2025)

System: tHTT (total HTT protein)
Experiment: Time-resolved FRET (HTRF) assay: Q48-Huntingtin and total-Huntingtin detection in GEN020 hESC lysates
Assay type: cell-based
Conditions: tHTT activity; human embryonic stem cells GEN020 (mutant 48 Q repeat allele); test compounds 48 hours; read-out: HTT Lowering Activity (HTRF)
Description: Time-resolved FRET assay: Q48-Huntingtin and total-Huntington detection Detection of endogenous HTT protein in cell lysates was performed using a protocol adapted from Weiss et al. See Weiss A et al. (2009). Single-step detection of mutant huntingtin in animal and human tissues: a bioassay for Huntington's disease. Anal. Biochem. 395(1): 8-15.
The multiplex assay was performed in human embryonic stem cells (GEN020 hESCs with mutant 48 Q repeat allele) which have been derived by Genea Biocells from human blastocysts of HD donors. Bradley C K et al. (2011). Derivation of Huntington's disease-affected human embryonic stem cell lines, Stem Cells Dev. 2011 March; 20(3):495-502. Cells were plated into 384-well collagen coated plates (10,000 cells per well) and left to adhere for 24 hours, test compounds were then added for 48 hours (37° C., 5% CO2), cells were then lysed, and the lysate was transferred to a black 384-well assay plate.
The assay plate included a combination of HTRF labelled monoclonal antibodies added to recognize discreet areas of the HTT protein, the Tb “donor” antibody (2B7-Tb: 0.2 ng/well) recognizes a sequence at the N-terminus of the protein, an Alexa488 “acceptor 1” antibody (MW1-Alexa488: 30 ng/well) recognizes an area in the polyQ region, whereas a d2 “acceptor 2” antibody (MAB2166-d2: 6 ng/well) recognizes a sequence beyond the polyQ region. These detection reagents were incubated with the cell lysate at room temperature for 4-6 hours before having their fluorescence quantified at 615 nm (donor) and 535 nm and 665 nm (acceptor 1 and 2 respectively). The donor/acceptor ratio between these signals indicated the relative quantities of mHTT and tHTT.
Results for various compounds described herein are provided in the Tables below. tHTT activity in this assay is categorized as 10-20 μM (−); 1-10 μM (+); 0.5-1 μM (++); 0.1-0.5 μM (+++); <0.1 μM (++++).

COCCOc1cc2nn(C)cc2cc1NC(=O)c1cnc(N2CC[C@@H](NC3CC3)C2)cn1 [Example 9, (R)-5-(3-(cyclopropylamino)pyrrolidin-1-yl)-N-(6-(2-methoxyethoxy)-2-methyl-2H-indazol-5-yl)pyrazine-2-carboxamide]
IC50: 100 to 500 nM

CN1CCCC2(C1)CN(c1cnc(C(=O)Nc3cc4cn(C)nc4cc3OCc3ccccc3)cn1)C2 [Example 10, N-(6-(benzyloxy)-2-methyl-2H-indazol-5-yl)-5-(6-methyl-2,6-diazaspiro[3.5]nonan-2-yl)pyrazine-2-carboxamide]
IC50: 100 to 500 nM

C#CCOc1cc2nn(C)cc2cc1NC(=O)c1cnc(N2CC3(CCCN(C)C3)C2)cn1 [Example 11, N-(2-methyl-6-(prop-2-yn-1-yloxy)-2H-indazol-5-yl)-5-(6-methyl-2,6-diazaspiro[3.5]nonan-2-yl)pyrazine-2-carboxamide]
IC50: 100 to 500 nM

Cc1nc2c(F)cc(NC(=O)c3cnc(N4CC(CNC(C)C)C4)cn3)cc2o1 [Example 12, N-(4-fluoro-2-methylbenzo[d]oxazol-6-yl)-5-(3-((isopropylamino)methyl)azetidin-1-yl)pyrazine-2-carboxamide]
IC50: 100 to 500 nM

Cc1cn2cc(NC(=O)c3cnc(N4C[C@@H](C)[C@H](NC5CC5)C4)cn3)cc(F)c2n1 [Example 13, 5-((3S,4R)-3-(cyclopropylamino)-4-methylpyrrolidin-1-yl)-N-(8-fluoro-2-methylimidazo[1,2-a]pyridin-6-yl)pyrazine-2-carboxamide]
IC50: 100 to 500 nM

Cc1nc2c(F)cc(NC(=O)c3cnc(N(C)C4CCNCC4)cn3)cc2o1 [Example 14, N-(4-fluoro-2-methylbenzo[d]oxazol-6-yl)-5-(methyl(piperidin-4-yl)amino)pyrazine-2-carboxamide]
IC50: 100 to 500 nM

CN[C@@H]1CCN(c2cnc(C(=O)Nc3cc(Cl)n4nc(C)cc4c3)cn2)C1 [Example 15]
IC50: < 100 nM

Cc1cc2cc(NC(=O)c3cnc(N4CC[C@@H](CNC5CC5)C4)cn3)cc(Cl)n2n1 [Example 16]
IC50: 500 to 1000 nM

CCOc1cc2nn(C)cc2cc1NC(=O)c1cnc(N2CC(CN3CC(F)C3)C2)cn1 [Example 17]
IC50: 100 to 500 nM

Cn1cc2cc(NC(=O)c3cnc(N4CC[C@@H](NC5CC5)C4)cn3)c(OC(F)F)cc2n1 [Example 18]
IC50: 100 to 500 nM

CN[C@@H]1CCN(c2cnc(C(=O)Nc3cc(F)c4nc(C)nn4c3)cn2)C1 [Example 19, (R)-N-(8-fluoro-2-methyl-[1,2,4]triazolo[1,5-a]pyridin-6-yl)-5-(3-(methylamino)pyrrolidin-1-yl)pyrazine-2-carboxamide]
IC50: 100 to 500 nM

Cc1cn2cc(NC(=O)c3cnc(N4CC[C@@H](NC5=NCCN5)C4)cn3)cc(F)c2n1 [Example 20, (R)-5-(3-((4,5-dihydro-1H-imidazol-2-yl)amino)pyrrolidin-1-yl)-N-(8-fluoro-2-methylimidazo[1,2-a]pyridin-6-yl)pyrazine-2-carboxamide]
IC50: 100 to 500 nM

CN[C@@H]1CCN(c2cnc(C(=O)Nc3cn4cc(C)nc4c(F)c3C)cn2)C1 [Example 21, (R)-N-(8-fluoro-2,7-dimethylimidazo[1,2-a]pyridin-6-yl)-5-(3-(methylamino)pyrrolidin-1-yl)pyrazine-2-carboxamide]
IC50: 100 to 500 nM

CN[C@@H]1CCN(c2cnc(C(=O)Nc3cc(OC)c4nc(C)oc4c3)cn2)C1 [Example 22, (R)-N-(4-methoxy-2-methylbenzo[d]oxazol-6-yl)-5-(3-(methylamino)pyrrolidin-1-yl)pyrazine-2-carboxamide]
IC50: 100 to 500 nM

CCNC1C2CN(c3cnc(C(=O)Nc4cc(F)c5nc(C)cn5c4)cn3)CC21 (centres unmarked) [Example 23, 5-(6-(ethylamino)-3-azabicyclo[3.1.0]hexan-3-yl)-N-(8-fluoro-2-methylimidazo[1,2-a]pyridin-6-yl)pyrazine-2-carboxamide]
IC50: < 100 nM

Cc1cn2cc(NC(=O)c3cnc(N4CC5C(N)C5C4)cn3)cc(F)c2n1 (centres unmarked) [Example 24, 5-(6-amino-3-azabicyclo[3.1.0]hexan-3-yl)-N-(8-fluoro-2-methyl-imidazo[1,2-a]pyridin-6-yl)pyrazine-2-carboxamide]
IC50: < 100 nM

Cc1cn2cc(NC(=O)c3cnc(N4CC5C(N)C5C4)cn3)nc(C)c2n1 (centres unmarked) [Example 25]
IC50: 100 to 500 nM

COc1nc(NC(=O)c2cnc(N3CC4C(N)C4C3)cn2)cn2cc(C)nc12 (centres unmarked) [Example 26]
IC50: < 100 nM

Cc1cn2cc(NC(=O)c3cnc(N4CC5C(N)C5C4)cn3)c(F)c(C)c2n1 (centres unmarked) [Example 27]
IC50: 100 to 500 nM

Cc1cn2cc(NC(=O)c3cnc(N4CC5CC5(N)C4)cn3)cc(F)c2n1 (centres unmarked) [Example 28]
IC50: 100 to 500 nM

CNC1C2CN(c3cnc(C(=O)Nc4cc(F)c5nc(C)cn5c4)cn3)CC21 (centres unmarked) [Example 29, N-(8-Fluoro-2-methyl-imidazo[1,2-a]pyridin-6-yl)-5-[6-(methylamino)-3-azabicyclo[3.1.0]hexan-3-yl]pyrazine-2-carboxamide]
IC50: < 100 nM

COc1cc2nn(C)cc2cc1NC(=O)c1cnc(N2CC3C(N)C3C2)cn1 (centres unmarked) [Example 30, 5-(6-Amino-3-azabicyclo[3.1.0]hexan-3-yl)-N-(6-methoxy-2-methyl-indazol-5-yl)pyrazine-2-carboxamide]
IC50: < 100 nM

Cc1cn2cc(NC(=O)c3cnc(N4CC[C@H](CNC5CC5)C4)cn3)c(F)c(C)c2n1 [Example 31, 5-[(3R)-3-[(cyclopropylamino)methyl]pyrrolidin-1-yl]-N-(7-fluoro-2,8-dimethyl-imidazo[1,2-a]pyridin-6-yl)pyrazine-2-carboxamide]
IC50: < 100 nM

Cc1cn2cc(NC(=O)c3cnc(N4CC5C(C4)C5N4CCCC4)cn3)cc(F)c2n1 (centres unmarked) [Example 32, N-(8-Fluoro-2-methyl-imidazo[1,2-a]pyridin-6-yl)-5-(6-pyrrolidin-1-yl-3-azabicyclo[3.1.0]hexan-3-yl)pyrazine-2-carboxamide]
IC50: 500 to 1000 nM

CCNC1C2CN(c3cnc(C(=O)Nc4cn5cc(C)nc5c(OC)n4)cn3)CC21 (centres unmarked) [Example 34, 5-(6-(ethylamino)-3-azabicyclo[3.1.0]hexan-3-yl)-N-(8-methoxy-2-methylimidazo[1,2-a]pyrazin-6-yl)pyrazine-2-carboxamide]
IC50: 100 to 500 nM

Cc1cn2cc(NC(=O)c3cnc(N4CC5C[C@@]5(N)C4)cn3)cc(F)c2n1 (stereo partly drawn) [Example 35, 5-((1S)-1-amino-3-azabicyclo[3.1.0]hexan-3-yl)-N-(8-fluoro-2-methylimidazo[1,2-a]pyridin-6-yl)pyrazine-2-carboxamide]
IC50: 500 to 1000 nM

Cc1cn2cc(NC(=O)c3cnc(N4CC5C[C@]5(N)C4)cn3)cc(F)c2n1 (stereo partly drawn) [Example 36, 5-((1R)-1-amino-3-azabicyclo[3.1.0]hexan-3-yl)-N-(8-fluoro-2-methylimidazo[1,2-a]pyridin-6-yl)pyrazine-2-carboxamide]
IC50: 100 to 500 nM

Cc1cn2cc(NC(=O)c3cnc(N4CC5C(C4)C5NC4CC4)cn3)cc(F)c2n1 (centres unmarked) [Example 37, 5-[6-(Cyclopropylamino)-3-azabicyclo[3.1.0]hexan-3-yl]-N-(8-fluoro-2-methyl-imidazo[1,2-a]pyridin-6-yl)pyrazine-2-carboxamide]
IC50: 100 to 500 nM

Cc1cn2cc(NC(=O)c3cnc(N4CC[C@@H](NC5CC5)C4=O)cn3)cc(F)c2n1 [Example 43, (R)-5-(3-(cyclopropylamino)-2-oxopyrrolidin-1-yl)-N-(8-fluoro-2-methylimidazo[1,2-a]pyridin-6-yl)pyrazine-2-carboxamide]
IC50: 100 to 500 nM

Cc1cn2cc(NC(=O)c3cnc(N4CC[C@H](NC5CC5)C4=O)cn3)cc(F)c2n1 [Example 44, (S)-5-(3-(cyclopropylamino)-2-oxopyrrolidin-1-yl)-N-(8-fluoro-2-methylimidazo[1,2-a]pyridin-6-yl)pyrazine-2-carboxamide]
IC50: 100 to 500 nM

Cc1cn2cc(NC(=O)c3cnc(N4CC(CN5CC(OCC(=O)NCCC6(CCN=[N+]=[N-])N=N6)C5)C4)cn3)cc(F)c2n1 [Example 45, 5-[3-[[3-[2-[2-[3-(2-azidoethyl)diazirin-3-yl]ethylamino]-2-oxo-ethoxy]azetidin-1-yl]methyl]azetidin-1-yl]-N-(8-fluoro-2-methyl-imidazo[1,2-a]pyridin-6-yl)pyrazine-2-carboxamide]
IC50: 500 to 1000 nM

Cc1cn2cc(NC(=O)c3cnc(-n4cc(CNC5CC5)cn4)cn3)cc(F)c2n1 [Example 46, 5-(4-((Cyclopropylamino)methyl)-1H-pyrazol-1-yl)-N-(8-fluoro-2-methylimidazo[1,2-a]pyridin-6-yl)pyrazine-2-carboxamide]
IC50: 500 to 1000 nM
